≈ marks a conversion by molar mass, not a printed value.
conditions: buffer; pH 7.4; 200.0 µM

**Q.** For C/C(=C\c1ccccc1)C(=O)Nc1ccc(Cl)cn1, which solubility kinetic is on record?
**A.** 7.2 µg/mL (≈ 26.4 µM)

**Q.** Which solubility kinetic does the source give for Nc1nnc(SCC(=O)OCC(=O)NC2CCCCC2)s1 here?
**A.** > 49.6 µg/mL

**Q.** With O=C(CN1C(=O)NC2(CCCCC2)C1=O)N1CCOCC1 as the molecule, how does the solubility kinetic read?
**A.** > 44.3 µg/mL

**Q.** With Cc1ccc[n+](CC(=O)Nc2ccc(C)c(C)c2)c1.[Cl-] as the molecule, how does the solubility kinetic read?
**A.** > 43.6 µg/mL

**Q.** With CS(=O)(=O)c1ccc2nc(NC(=O)C3CCCO3)sc2c1 (stereo unspecified) as the molecule, how does the solubility kinetic read?
**A.** 43.8 µg/mL (≈ 134 µM)

**Q.** Which solubility kinetic does the source give for CN(Cc1ccccc1)C(=S)Nc1cccnc1 here?
**A.** > 38.6 µg/mL

**Q.** With CNc1ccc(/C=C2\CSc3ccccc3C2=O)cc1[N+](=O)[O-] as the molecule, how does the solubility kinetic read?
**A.** 3 µg/mL (≈ 9.19 µM)

**Q.** Which solubility kinetic does the source give for CN(C)c1cccc(C(=O)OCC(=O)N(C)c2ccccc2)c1 here?
**A.** > 46.9 µg/mL

**Q.** With O=C(NC1CCCc2ccccc21)c1ccccn1 (stereo unspecified) as the molecule, how does the solubility kinetic read?
**A.** 35.9 µg/mL (≈ 142 µM)

**Q.** Which solubility kinetic does the source give for CC(C(=O)Nc1ccc2c(c1)OCO2)N(C)CC(=O)Nc1ccccc1Cl (stereo unspecified) here?
**A.** > 58.5 µg/mL

**Q.** For Cl.O=C1C2CCCC1C(N1CCCCC1)CC2 (stereo unspecified), which solubility kinetic is on record?
**A.** > 38.7 µg/mL

**Q.** With Cc1ccc(S(=O)(=O)NCc2ccccc2C)cc1 as the molecule, how does the solubility kinetic read?
**A.** 20.4 µg/mL (≈ 74.1 µM)

**Q.** Which solubility kinetic does the source give for Cc1ccc2cccc(OC(=O)/C=C\c3ccccc3)c2n1 here?
**A.** 16.8 µg/mL (≈ 58.1 µM)

**Q.** Which solubility kinetic does the source give for O=C(CN1CCCC1)Nc1cc(F)ccc1F here?
**A.** 35.1 µg/mL (≈ 146 µM)

**Q.** Which solubility kinetic does the source give for CCc1ccc(CN2CCC(CO)(CC3CCCCO3)CC2)o1 (stereo unspecified) here?
**A.** 38.1 µg/mL (≈ 119 µM)

**Q.** With Clc1ccc(CNc2ccccn2)cc1 as the molecule, how does the solubility kinetic read?
**A.** 25.8 µg/mL (≈ 118 µM)

**Q.** With Cc1cccc(C)c1NC(=O)C[n+]1cc(-c2ccccc2)n2c1CCC2.[Cl-] as the molecule, how does the solubility kinetic read?
**A.** > 57.3 µg/mL

**Q.** For CC(Sc1ccc([N+](=O)[O-])cn1)C(=O)Nc1nccs1 (stereo unspecified), which solubility kinetic is on record?
**A.** 5 µg/mL (≈ 16.1 µM)

**Q.** With COC(=O)c1c(C)oc(C)c1S(=O)(=O)NC(C)(C)C as the molecule, how does the solubility kinetic read?
**A.** > 43.4 µg/mL

**Q.** With O=C(Nc1nccs1)C1CC(=O)N(c2ccc(Cl)cc2)C1 (stereo unspecified) as the molecule, how does the solubility kinetic read?
**A.** 4.1 µg/mL (≈ 12.7 µM)

**Q.** With CCCCOc1ccc(C(=O)Nc2ccc(CN3CCOCC3)cc2)cc1 as the molecule, how does the solubility kinetic read?
**A.** 1.1 µg/mL (≈ 2.99 µM)

**Q.** With S=C(NCCc1c[nH]c2ccccc12)NC1CCCCC1 as the molecule, how does the solubility kinetic read?
**A.** 2.8 µg/mL (≈ 9.29 µM)

**Q.** Which solubility kinetic does the source give for COc1ccccc1NC(=O)c1cc[n+]([O-])cc1 here?
**A.** > 36.6 µg/mL

**Q.** With CC(=O)NCCc1nc2cc(NS(=O)(=O)c3ccccc3)ccc2n1C as the molecule, how does the solubility kinetic read?
**A.** > 55.9 µg/mL

**Q.** With CC(=O)Nc1ccc(NC(=O)C2(C)CC2(Cl)Cl)cc1 (stereo unspecified) as the molecule, how does the solubility kinetic read?
**A.** > 45.2 µg/mL

**Q.** With C/C(=N\OC(=O)c1ccccc1)c1c(C)nc2cc(C)ccn12 as the molecule, how does the solubility kinetic read?
**A.** 44.7 µg/mL (≈ 145 µM)

**Q.** Which solubility kinetic does the source give for CC(C)(C)N(Cc1ccccc1)C(=O)c1ccncc1 here?
**A.** > 40.3 µg/mL

**Q.** With CNc1nc(N)c(C(=O)Nc2cc(C)on2)s1 as the molecule, how does the solubility kinetic read?
**A.** 35.4 µg/mL (≈ 140 µM)

**Q.** Which solubility kinetic does the source give for Cc1ccc(OCCn2ccnc2)c([N+](=O)[O-])c1 here?
**A.** 26.8 µg/mL (≈ 108 µM)

**Q.** For c1ccc(CNc2ncnc3sc4c(c23)CCCC4)nc1, which solubility kinetic is on record?
**A.** 6.7 µg/mL (≈ 22.6 µM)

**Q.** With O=C(CCc1nnc(CCC2CCCCC2)o1)NCc1ccon1 as the molecule, how does the solubility kinetic read?
**A.** > 49.9 µg/mL

**Q.** For COc1cccc(C(=O)N2CCOCC2)c1OC, which solubility kinetic is on record?
**A.** > 37.7 µg/mL

**Q.** Which solubility kinetic does the source give for C=C1c2cc3c(cc2NC(=S)N1Cc1ccccc1)OCO3 here?
**A.** 9.8 µg/mL (≈ 31.6 µM)

**Q.** Which solubility kinetic does the source give for CN1CCCN(C(=O)c2ccc(Cl)s2)CC1 here?
**A.** > 38.8 µg/mL

**Q.** For O=C(CNC(=O)c1ccncc1)N/N=C/c1ccc(Br)cc1, which solubility kinetic is on record?
**A.** > 54.2 µg/mL

**Q.** With Cc1ccc(F)cc1NC(=O)CN1CCN(c2ccccn2)CC1 as the molecule, how does the solubility kinetic read?
**A.** > 49.3 µg/mL

**Q.** Which solubility kinetic does the source give for COc1ccc(C(=O)NCCN2CCOCC2)c(OC)c1 here?
**A.** > 44.2 µg/mL

**Q.** For COc1ccc(CC(=O)NC(CC(=O)O)c2cccc([N+](=O)[O-])c2)cc1 (stereo unspecified), which solubility kinetic is on record?
**A.** > 53.8 µg/mL

**Q.** For O=C(CSc1nc(O)c(Cc2ccccc2)c(=O)[nH]1)c1ccccc1, which solubility kinetic is on record?
**A.** > 52.9 µg/mL

**Q.** Which solubility kinetic does the source give for C[C@@H](C(=O)Nc1cccnc1)n1c(=O)[nH]c2ccccc2c1=O here?
**A.** > 46.5 µg/mL

**Q.** For Cc1cc(C)c(C)c(S(=O)(=O)Nc2ccccc2N2CCOCC2)c1C, which solubility kinetic is on record?
**A.** 1.7 µg/mL (≈ 4.54 µM)

**Q.** Which solubility kinetic does the source give for Cc1cnc(C(=O)N2CCN(S(=O)(=O)c3cccc(Br)c3)CC2)cn1 here?
**A.** > 63.8 µg/mL

**Q.** For CC(C)Nc1nc(N)c(C(=O)C23CC4CC(CC(C4)C2)C3)s1, which solubility kinetic is on record?
**A.** 0.3 µg/mL (≈ 0.939 µM)

**Q.** For CCCNC(=O)CSc1nc2ccccc2c(=O)n1CCC, which solubility kinetic is on record?
**A.** 27.1 µg/mL (≈ 84.8 µM)

**Q.** Which solubility kinetic does the source give for Cc1ccc(S(=O)(=O)N2CCOCC2)cc1C(=O)N1CCCC1 here?
**A.** > 50.8 µg/mL

**Q.** With CN(C)C(=S)c1ccc(N(C)C)cc1 as the molecule, how does the solubility kinetic read?
**A.** 28.2 µg/mL (≈ 135 µM)

**Q.** For Cc1ccc(S(=O)(=O)N2CCN(C(C)CC(=O)O)CC2)cc1 (stereo unspecified), which solubility kinetic is on record?
**A.** 32.9 µg/mL (≈ 101 µM)

**Q.** Which solubility kinetic does the source give for CC1(C)CC(=O)c2sc(NS(=O)(=O)c3ccccc3)nc2C1 here?
**A.** 48.9 µg/mL (≈ 145 µM)

**Q.** With Cc1onc(-c2ccccc2)c1CNS(=O)(=O)c1cccc(Cl)c1 as the molecule, how does the solubility kinetic read?
**A.** 36.5 µg/mL (≈ 101 µM)

**Q.** With C=CCOn1c(=O)c(-c2ccc(C)cc2)[n+]([O-])c2ccccc21 as the molecule, how does the solubility kinetic read?
**A.** 5.7 µg/mL (≈ 18.5 µM)

**Q.** Which solubility kinetic does the source give for CN(Cc1ccccc1F)c1ncnc2sccc12 here?
**A.** 33.7 µg/mL (≈ 123 µM)

**Q.** With Cc1c(C)n(Cc2ccccc2)c2ncnc(NCCCO)c12 as the molecule, how does the solubility kinetic read?
**A.** < 0.2 µg/mL

**Q.** For Cc1ccc(NCc2ccc([N+](=O)[O-])s2)cc1, which solubility kinetic is on record?
**A.** 13.7 µg/mL (≈ 55.2 µM)

**Q.** Which solubility kinetic does the source give for COc1ccc(-c2csc(NC(=O)c3ccccc3F)n2)cc1 here?
**A.** 0.5 µg/mL (≈ 1.52 µM)

**Q.** For O=C(O)C(c1ccccc1)N1C(=O)c2ccccc2C1=O (stereo unspecified), which solubility kinetic is on record?
**A.** 40.7 µg/mL (≈ 145 µM)

**Q.** For COc1ccc(-n2ccnc2SCC(=O)NO)cc1, which solubility kinetic is on record?
**A.** > 41.9 µg/mL

**Q.** Which solubility kinetic does the source give for COc1ccccc1NC(=O)Nc1ccncc1 here?
**A.** 16.5 µg/mL (≈ 67.8 µM)

**Q.** With O=C(O)CCNc1ccc(Cl)cc1 as the molecule, how does the solubility kinetic read?
**A.** > 29.9 µg/mL

**Q.** Which solubility kinetic does the source give for CC(=O)c1ccc(NC(=O)c2ccccc2-c2ccccc2C(=O)O)cc1 here?
**A.** > 53.9 µg/mL

**Q.** For O=C(CN1C(=O)C2CC=CCC2C1=O)N1CCN(S(=O)(=O)c2ccccc2)CC1 (stereo unspecified), which solubility kinetic is on record?
**A.** > 62.6 µg/mL

**Q.** For CCO/C([O-])=N/c1c[n+](N2CCOCC2)no1, which solubility kinetic is on record?
**A.** > 36.3 µg/mL
